Measurements from US6737383B1, “Herbicidal oxadiazolidines” (priority 1999, dated 2004).

Assays:
Green foxtail = test: Test D green foxtail; format: in vivo; conditions: Preemergence, 0 to 100 scale
Method in brief: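 Weed seeds planted in sandy loam; species kept apart in individual pots or compartments. Preemergence tests: treatment to soil surface within one day. Greenhouse growth, then visual injury scoring at 14–21 days (0–100).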

barnyardgrass [1] = test: Test A barnyardgrass; format: in vivo, Echinochloa crus-galli; conditions: 0 to 10 scale where 0 is no effect and 10 is complete control
Method in brief: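 Injury scored visually after about eleven greenhouse days against untreated plants, 0 = no effect, 10 = complete control. Compounds, formulated in surfactant-containing non-phytotoxic solvent, were applied as preemergence soil drench to sandy loam plantings and as postemergence runoff spray at the 1–2 leaf stage.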

surinam grass = test: Test C postemergence surinam grass; format: in vivo, Brachiaria decumbens; conditions: 0 to 100 scale, 0 no effect, 100 complete control
Protocol: (§1) Compounds evaluated in this test were formulated in a non-phytotoxic solvent mixture which included a surfactant and applied to plants that were grown for various periods of time before treatment (postemergence application). A mixture of sandy loam soil and greenhouse potting mix in a 60:40 ratio was used for the postemergence test.
(§2) Plantings of these crops and weed species were adjusted to produce plants of appropriate size for the postemergence test. All plant species were grown using normal greenhouse practices. Crop and weed species include arrowleaf sida (Sida rhombifolia), barnyardgrass (Echinochloa crus-galli), cocklebur (Xanthium strumarium), common ragweed (Ambrosia elatior), corn (Zea mays), cotton (Gossypium hirsutum), eastern black nightshade (Solanum ptycanthum), fall panicum (Panicum dichotomiflorum), field bindweed (Convolvulus arvensis), giant foxtail (Setaria faberii), hairy beggarticks (Bidens pilosa), ivyleaf morningglory (Ipomoea hederacea), johnsongrass (Sorghum halepense), ladysthumb smartweed (Polygonum persicaria), lambsquarters (Chenopodium album), large crabgrass (Digitaria sanguinalis), purple nutsedge (Cyperus rotundus), redroot pigweed (Amaranthus retroflexus), soybean (Glycine max), surinam grass (Brachiaria decumbens), velvetleaf (Abutilon theophrasti) and wild poinsettia (Euphorbia heterophylla).
(§3) Treated plants and untreated controls were maintained in a greenhouse for approximately 14, to 21 days, after which all treated plants were compared to untreated controls and visually evaluated. Plant response ratings, summarized in Table C, were based upon a 0 to 100 scale where 0 was no effect and 100 was complete control. A dash response (−) means no test result.

wild poinsettia = test: Test C postemergence wild poinsettia; format: in vivo, Euphorbia heterophylla; conditions: 0 to 100 scale, 0 no effect, 100 complete control
Method in brief: (§4)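 Visual injury scored 0-100 (100 = complete control) versus untreated plants roughly 14 to 21 days after treatment. Plants were grown to suitable size in 60:40 sandy loam and potting mix, then treated postemergence with surfactant-containing solvent formulations.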

soybean = test: Test C postemergence soybean; format: in vivo, Glycine max; conditions: 0 to 100 scale, 0 no effect, 100 complete control
Method in brief: as §4

barnyardgrass [2] = test: Test C postemergence barnyardgrass; format: in vivo, Echinochloa crus-galli; conditions: 0 to 100 scale, 0 no effect, 100 complete control
Method in brief: as §4

lambsquarters = test: Test C postemergence lambsquarters; format: in vivo, Chenopodium album; conditions: 0 to 100 scale, 0 no effect, 100 complete control
Method in brief: as §4

field bindweed = test: Test C postemergence field bindweed; format: in vivo, Convolvulus arvensis; conditions: 0 to 100 scale, 0 no effect, 100 complete control
Protocol: as §1, §2, §3

Italian ryegrass = test: Test E Italian ryegrass; format: in vivo, Lolium multiflorum; conditions: Postemergence
Protocol: as §1, with “in the 1- to 4-leaf stage” for “grown for various periods of time before treatment”
(§5) Plantings of these crops and weed species were adjusted to produce plants of appropriate size for the postemergence test. All plant species were grown using normal greenhouse practices. Crop and weed species include annual bluegrass (Poa annua), blackgrass (Alopecurus myosuroides), black nightshade (Solanum nigra), chickweed (Stellaria media), common poppy (Papaver rhoeas), deadnettle (Lamium amplexicaule), downy brome (Bromus tectorum), field violet (Viola arvensis), galium (Galium aparine), green foxtail (Setaria viridis), Italian ryegrass (Lolium multiflorum), jointed goatgrass (Aegilops cylindrica), kochia (Kochia scoparia), lambsquarters (Chenopodium album), littleseed canarygrass (Phalaris minor), rape (Brassica napus), redroot pigweed (Amaranthus retroflexus), Russian thistle (Salsola kali), scentless chamomile (Matricaria inodora), spring barley (Hordeum vulgare), sugar beet (Beta vulgaris), sunflower (Helianthus annuus), ivyleaf speedwell (Veronica hederaefolia), spring wheat (Triticum aestivum), winter wheat (Triticum aestivum), wild buckwheat (Polygonum convolvulus), wild mustard (Sinapis arvensis), wild oat (Avena fatua), windgrass (Apera spica-venti) and winter barley (Hordeum vulgare).
(§6) Treated plants and untreated controls were maintained in a greenhouse for approximately 21 to 28 days, after which all treated plants were compared to untreated controls and visually evaluated. […] A dash response (-) means no test result.

annual bluegrass = test: Test E annual bluegrass; format: in vivo, Poa annua; conditions: Preemergence
chickweed [3] = test: Test E chickweed; format: in vivo, Stellaria media; conditions: Preemergence
chickweed [4] = test: Test E chickweed; format: in vivo, Stellaria media; conditions: Postemergence
Protocol: as §1, with “in the 1- to 4-leaf stage” for “grown for various periods of time before treatment”
as §5, §6

ivyleaf speedwell = test: Test E postemergence ivyleaf speedwell; format: in vivo, Veronica hederaefolia
Protocol: as §1, with “in the 1- to 4-leaf stage” for “grown for various periods of time before treatment”
as §5, §6

pitted morningglory = test: Test D pitted morningglory; format: in vivo, Ipomoea lacunosa; conditions: Postemergence, 0 to 100 scale
bermuda-grass = test: Test D bermudagrass; format: in vivo, Cynodon dactylon; conditions: Postemergence, 0 to 100 scale
[5] = Rate 250 g/ha, 0 to 100 scale (0 no effect, 100 complete control)
[6] = Rate 500 g/ha, 0 to 100 scale, 0 no effect, 100 complete control
[7] = Rate 125 g/ha, 0 to 100 scale (0 no effect, 100 complete control)
[8] = Rate 500 g/ha, 0 to 100 scale where 0 is no effect and 100 is complete control
[9] = Rate 64 g/ha, 0 no injury, 100 complete control
[10] = Rate 125 g/ha, 0 no injury, 100 complete control

## Cc1ccccc1-n1c(=O)on(C(=O)N(c2ccccc2)C(C)C)c1=O [Compound 36]
Green foxtail; Rate 500 g/ha
  Plant response rating, Green foxtail: 100

## Cc1ccccc1-n1c(=O)on(C(=O)N(c2cc(OC(C)C)c(Cl)cc2Cl)C(C)C)c1=O [Compound 42]
Barnyardgrass [1]; Postemergence, Rate 1000 g/ha
  Plant response rating, Barnyardgrass: 0
Barnyardgrass [1]; Pre-emergence, Rate 2000 g/ha
  Plant response rating, Barnyardgrass: 0

## CC(C)N(C(=O)n1oc(=O)n(Cc2ccccc2)c1=O)c1ccccc1 [Compound 94]
Green foxtail; Rate 500 g/ha
  Plant response rating, Green foxtail: 100
Surinam grass; Rate 140 g/ha
  Plant response rating Surinam grass: 0
Surinam grass; Rate 280 g/ha
  Plant response rating Surinam grass: 0
Surinam grass; Rate 560 g/ha
  Plant response rating Surinam grass: 0
Surinam grass; Rate 1120 g/ha
  Plant response rating Surinam grass: 10
Wild poinsettia; Rate 140 g/ha
  Plant response rating Wild poinsettia: 0
Wild poinsettia; Rate 280 g/ha
  Plant response rating Wild poinsettia: 0
Wild poinsettia; Rate 560 g/ha
  Plant response rating Wild poinsettia: 60
Wild poinsettia; Rate 1120 g/ha
  Plant response rating Wild poinsettia: 85
soybean; Rate 140 g/ha
  Plant response rating, Soybean: 15
soybean; Rate 280 g/ha
  Plant response rating, Soybean: 15
soybean; Rate 560 g/ha
  Plant response rating, Soybean: 30
soybean; Rate 1120 g/ha
  Plant response rating, Soybean: 55
Barnyardgrass [2]; Rate 140 g/ha
  Plant response rating, Barnyardgrass: 0
Barnyardgrass [2]; Rate 280 g/ha
  Plant response rating, Barnyardgrass: 0
Barnyardgrass [2]; Rate 560 g/ha
  Plant response rating, Barnyardgrass: 30
Barnyardgrass [2]; Rate 1120 g/ha
  Plant response rating, Barnyardgrass: 65
lambsquarters; Rate 140 g/ha
  Plant response rating Lambsquarters: 0
lambsquarters; Rate 280 g/ha
  Plant response rating Lambsquarters: 5
lambsquarters; Rate 560 g/ha
  Plant response rating Lambsquarters: 10
lambsquarters; Rate 1120 g/ha
  Plant response rating Lambsquarters: 30
Field bindweed; Rate 140 g/ha
  Plant response rating Field bindweed: 0
Field bindweed; Rate 280 g/ha
  Plant response rating Field bindweed: 0
Field bindweed; Rate 560 g/ha
  Plant response rating Field bindweed: 0
Field bindweed; Rate 1120 g/ha
  Plant response rating Field bindweed: 0

## CC(C)N(C(=O)n1oc(=O)n(C(C)C)c1=O)c1ccc(F)cc1F [Compound 109]
Italian ryegrass; Rate 125 g/ha, 0 to 100 scale
  Plant response rating, I. Ryegrass: 10
Italian ryegrass; [5]
  Plant response rating, I. Ryegrass: 10
Italian ryegrass; [6]
  Plant response rating, I. Ryegrass: 65
Green foxtail; Rate 250 g/ha
  Plant response rating, Green foxtail: 100
Green foxtail; Rate 500 g/ha
  Plant response rating, Green foxtail: 100
Surinam grass; Rate 140 g/ha
  Plant response rating Surinam grass: 0
Surinam grass; Rate 280 g/ha
  Plant response rating Surinam grass: 5
Surinam grass; Rate 560 g/ha
  Plant response rating Surinam grass: 50
Surinam grass; Rate 1120 g/ha
  Plant response rating Surinam grass: 95
Wild poinsettia; Rate 140 g/ha
  Plant response rating Wild poinsettia: 10
Wild poinsettia; Rate 280 g/ha
  Plant response rating Wild poinsettia: 30
Wild poinsettia; Rate 560 g/ha
  Plant response rating Wild poinsettia: 50
Wild poinsettia; Rate 1120 g/ha
  Plant response rating Wild poinsettia: 90
Annual bluegrass; [7]
  Plant response rating, Annual bluegras: 40
Annual bluegrass; Rate 250 g/ha, 0 to 100 scale
  Plant response rating, Annual bluegras: 90
Annual bluegrass; [8]
  Plant response rating, Annual bluegras: 75
soybean; Rate 140 g/ha
  Plant response rating, Soybean: 35
soybean; Rate 280 g/ha
  Plant response rating, Soybean: 70
soybean; Rate 560 g/ha
  Plant response rating, Soybean: 85
soybean; Rate 1120 g/ha
  Plant response rating, Soybean: 85
Barnyardgrass [2]; Rate 140 g/ha
  Plant response rating, Barnyardgrass: 60
Barnyardgrass [2]; Rate 280 g/ha
  Plant response rating, Barnyardgrass: 85
Barnyardgrass [2]; Rate 560 g/ha
  Plant response rating, Barnyardgrass: 85
Barnyardgrass [2]; Rate 1120 g/ha
  Plant response rating, Barnyardgrass: 95
Chickweed [3]; [7]
  Plant response rating, Chickweed: 40
Chickweed [3]; [8]
  Plant response rating, Chickweed: 100
Chickweed [4]; Rate 125 g/ha, 0 to 100 scale
  Plant response rating, Chickweed: 0
Chickweed [4]; [5]
  Plant response rating, Chickweed: 0
Chickweed [4]; [6]
  Plant response rating, Chickweed: 10
lambsquarters; Rate 140 g/ha
  Plant response rating Lambsquarters: 10
lambsquarters; Rate 280 g/ha
  Plant response rating Lambsquarters: 10
lambsquarters; Rate 560 g/ha
  Plant response rating Lambsquarters: 30
lambsquarters; Rate 1120 g/ha
  Plant response rating Lambsquarters: 70
Ivyleaf speedwell; Rate 125 g/ha, 0 to 100 scale
  Plant response rating, Veronica hedera: 20
Ivyleaf speedwell; [5]
  Plant response rating, Veronica hedera: 50
Ivyleaf speedwell; [6]
  Plant response rating, Veronica hedera: 70
Field bindweed; Rate 140 g/ha
  Plant response rating Field bindweed: 0
Field bindweed; Rate 280 g/ha
  Plant response rating Field bindweed: 0
Field bindweed; Rate 560 g/ha
  Plant response rating Field bindweed: 10
Field bindweed; Rate 1120 g/ha
  Plant response rating Field bindweed: 10

## Cc1ccc(N(C(=O)n2oc(=O)n(C(C)C)c2=O)C(C)C)cc1 [Compound 132]
Surinam grass; Rate 140 g/ha
  Plant response rating Surinam grass: 0
Surinam grass; Rate 280 g/ha
  Plant response rating Surinam grass: 0
Surinam grass; Rate 560 g/ha
  Plant response rating Surinam grass: 0
Surinam grass; Rate 1120 g/ha
  Plant response rating Surinam grass: 30
Wild poinsettia; Rate 140 g/ha
  Plant response rating Wild poinsettia: 0
Wild poinsettia; Rate 280 g/ha
  Plant response rating Wild poinsettia: 0
Wild poinsettia; Rate 560 g/ha
  Plant response rating Wild poinsettia: 0
Wild poinsettia; Rate 1120 g/ha
  Plant response rating Wild poinsettia: 0
soybean; Rate 140 g/ha
  Plant response rating, Soybean: 5
soybean; Rate 280 g/ha
  Plant response rating, Soybean: 20
soybean; Rate 560 g/ha
  Plant response rating, Soybean: 30
soybean; Rate 1120 g/ha
  Plant response rating, Soybean: 40
Barnyardgrass [2]; Rate 140 g/ha
  Plant response rating, Barnyardgrass: 50
Barnyardgrass [2]; Rate 280 g/ha
  Plant response rating, Barnyardgrass: 50
Barnyardgrass [2]; Rate 560 g/ha
  Plant response rating, Barnyardgrass: 80
Barnyardgrass [2]; Rate 1120 g/ha
  Plant response rating, Barnyardgrass: 95
lambsquarters; Rate 140 g/ha
  Plant response rating Lambsquarters: 0
lambsquarters; Rate 280 g/ha
  Plant response rating Lambsquarters: 0
lambsquarters; Rate 560 g/ha
  Plant response rating Lambsquarters: 0
lambsquarters; Rate 1120 g/ha
  Plant response rating Lambsquarters: 0
Field bindweed; Rate 140 g/ha
  Plant response rating Field bindweed: 0
Field bindweed; Rate 280 g/ha
  Plant response rating Field bindweed: 0
Field bindweed; Rate 560 g/ha
  Plant response rating Field bindweed: 40
Field bindweed; Rate 1120 g/ha
  Plant response rating Field bindweed: 70

## CC(C)N(C(=O)n1oc(=O)n(C)c1=O)c1ccc(Cl)cc1 [Compound 137]
Barnyardgrass [1]; Postemergence, Rate 1000 g/ha
  Plant response rating, Barnyardgrass: 8
Barnyardgrass [1]; Pre-emergence, Rate 2000 g/ha
  Plant response rating, Barnyardgrass: 10

## CC(C)N(C(=O)n1oc(=O)n(N(C)c2ccccc2)c1=O)c1ccc(F)cc1 [Compound 177]
Barnyardgrass [1]; Postemergence, Rate 1000 g/ha
  Plant response rating, Barnyardgrass: 0
Barnyardgrass [1]; Pre-emergence, Rate 2000 g/ha
  Plant response rating, Barnyardgrass: 9

## CCN(C(=O)n1oc(=O)n(N(C)c2ccccc2)c1=O)C1CCCCC1 [Compound 183]
Barnyardgrass [1]; Postemergence, Rate 1000 g/ha
  Plant response rating, Barnyardgrass: 0
Barnyardgrass [1]; Pre-emergence, Rate 2000 g/ha
  Plant response rating, Barnyardgrass: 9

## CC(C)N(C(=O)n1oc(=O)n(C2CCCC(C(F)(F)F)C2)c1=O)c1ccc(F)cc1 (stereo not drawn) [Compound 184]
Barnyardgrass [1]; Postemergence, Rate 1000 g/ha
  Plant response rating, Barnyardgrass: 2
Barnyardgrass [1]; Pre-emergence, Rate 2000 g/ha
  Plant response rating, Barnyardgrass: 9

## CC(C)N(C(=O)n1oc(=O)n(C2CC2)c1=O)c1ccc(F)cc1F [Compound 299]
Pitted morningglory; [9]
  Plant response rating, P. morninglory: 0
Pitted morningglory; [10]
  Plant response rating, P. morninglory: 0
Pitted morningglory; Rate 250 g/ha
  Plant response rating, P. morninglory: 0
Pitted morningglory; Rate 500 g/ha
  Plant response rating, P. morninglory: 0
bermuda-grass; [9]
  Plant response rating, Bermudagrass: 90
bermuda-grass; [10]
  Plant response rating, Bermudagrass: 100
bermuda-grass; Rate 250 g/ha
  Plant response rating, Bermudagrass: 100
bermuda-grass; Rate 500 g/ha
  Plant response rating, Bermudagrass: 100
